This passage reports relative viability results from the supplement of paper PMC10307832.

What all share (experiment): relative viability (nuclei count vs DMSO), 5 days (fraction); higher = more cells survive
Compound in the test “Dovitinib + Lapatinib”: CN1CCN(c2ccc3nc(-c4c(N)c5c(F)cccc5[nH]c4=O)[nH]c3c2)CC1 [Dovitinib] + CS(=O)(=O)CCNCc1ccc(-c2ccc3ncnc(Nc4ccc(OCc5cccc(F)c5)c(Cl)c4)c3c2)o1 [Lapatinib] (partner 2 µM)
The procedure, abridged:
(§1)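 Relative viability was taken as the ratio of nuclei in treated wells to nuclei in vehicle wells. Lung cancer cell lines in 1536-well plates received compounds by pin tool one day after seeding, either one drug alone or a fixed anchor-drug dose plus five library-drug doses (not always all listed) in √10 steps. Nuclei were counted on 4× images after 5 days of treatment, and values are medians of duplicate plates.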

Compound in the test “Dovitinib + Decitabine”: CN1CCN(c2ccc3nc(-c4c(N)c5c(F)cccc5[nH]c4=O)[nH]c3c2)CC1 [Dovitinib] + Nc1ncn([C@H]2C[C@H](O)[C@@H](CO)O2)c(=O)n1 [Decitabine] (partner 2 µM)
The gist of the method:
as §1

Compound in the test “Dovitinib + Olaparib”: CN1CCN(c2ccc3nc(-c4c(N)c5c(F)cccc5[nH]c4=O)[nH]c3c2)CC1 [Dovitinib] + O=C(c1cc(Cc2n[nH]c(=O)c3ccccc23)ccc1F)N1CCN(C(=O)C2CC2)CC1 [Olaparib] (partner 8 µM)
The procedure, abridged: as §1

Compound in the test “Dovitinib + Luminespib”: CN1CCN(c2ccc3nc(-c4c(N)c5c(F)cccc5[nH]c4=O)[nH]c3c2)CC1 [Dovitinib] + CCNC(=O)c1noc(-c2cc(C(C)C)c(O)cc2O)c1-c1ccc(CN2CCOCC2)cc1 [Luminespib] (partner 0.01 µM)
The gist of the method:
as §1

Consider HCC-78, for which the relative viability with Dovitinib + Lapatinib (first compound 0.02 µM) worked out at 0.539; in the test with Dovitinib + Lapatinib (first compound 0.2 µM), 0.901; with Dovitinib + Lapatinib (first compound 0.6325 µM), 1.03; in the test with Dovitinib + Lapatinib (first compound 2 µM), 0.663; with Dovitinib + Decitabine (first compound 0.02 µM), 0.741; with Dovitinib + Decitabine (first compound 0.06325 µM), 0.659. Moreover, the relative viability is 0.686 with Dovitinib + Decitabine (first compound 0.2 µM); 0.655 with Dovitinib + Decitabine (first compound 0.6325 µM); 0.631 in the test with Dovitinib + Decitabine (first compound 2 µM); 0.887 with Dovitinib + Olaparib (first compound 0.02 µM); 0.665 with Dovitinib + Olaparib (first compound 0.06325 µM); 1.05 in the test with Dovitinib + Olaparib (first compound 0.2 µM). Moreover, the figures for the relative viability with Dovitinib + Olaparib (first compound 0.6325 µM) and with Dovitinib + Olaparib (first compound 2 µM) were 0.777 and 0.888, respectively.
HCC-366: the relative viability with Dovitinib + Lapatinib (first compound 0.02 µM) was 0.892; with Dovitinib + Lapatinib (first compound 0.06325 µM) it was 1.08; with Dovitinib + Lapatinib (first compound 0.2 µM), 1.03; in the test with Dovitinib + Lapatinib (first compound 0.6325 µM), 1.07; with Dovitinib + Lapatinib (first compound 2 µM), 1.01; in the test with Dovitinib + Decitabine (first compound 0.02 µM) it was 0.341. The relative viability with Dovitinib + Decitabine (first compound 0.06325 µM) turned out to be 0.363; with Dovitinib + Decitabine (first compound 0.2 µM), 0.362; with Dovitinib + Decitabine (first compound 0.6325 µM) it was 0.317; in the test with Dovitinib + Decitabine (first compound 2 µM), 0.378; in the test with Dovitinib + Olaparib (first compound 0.02 µM), 0.324; with Dovitinib + Olaparib (first compound 0.06325 µM) it was 0.352. In addition, the figures for the relative viability in the test with Dovitinib + Olaparib (first compound 0.2 µM), with Dovitinib + Olaparib (first compound 0.6325 µM) and in the test with Dovitinib + Olaparib (first compound 2 µM) were 0.412, 0.297 and 0.324, respectively.
Consider LCLC-103H, for which the relative viability with Dovitinib + Luminespib (first compound 0.02 µM) came to 0.963; with Dovitinib + Luminespib (first compound 0.06325 µM) it was 1; with Dovitinib + Luminespib (first compound 0.2 µM) it was 1.01; with Dovitinib + Luminespib (first compound 0.6325 µM), 0.885; with Dovitinib + Luminespib (first compound 2 µM), 0.922; with Dovitinib + Decitabine (first compound 0.02 µM), 0.722. In addition, the relative viability came to 0.775 with Dovitinib + Decitabine (first compound 0.06325 µM); 0.75 with Dovitinib + Decitabine (first compound 0.2 µM); 0.758 in the test with Dovitinib + Decitabine (first compound 0.6325 µM); 0.739 in the test with Dovitinib + Decitabine (first compound 2 µM); 0.765 in the test with Dovitinib + Olaparib (first compound 0.02 µM); 0.763 in the test with Dovitinib + Olaparib (first compound 0.06325 µM). The relative viability with Dovitinib + Olaparib (first compound 0.2 µM) turned out to be 0.751; in the test with Dovitinib + Olaparib (first compound 0.6325 µM), 0.759; in the test with Dovitinib + Olaparib (first compound 2 µM) it was 0.718.
Regarding NCI-H1563, the relative viability was 0.567 in the test with Dovitinib + Luminespib (first compound 0.02 µM); 0.481 with Dovitinib + Luminespib (first compound 0.06325 µM); 0.615 in the test with Dovitinib + Luminespib (first compound 0.2 µM); 0.509 with Dovitinib + Luminespib (first compound 0.6325 µM); 0.543 with Dovitinib + Luminespib (first compound 2 µM); 0.92 in the test with Dovitinib + Lapatinib (first compound 0.02 µM). Further, the relative viability worked out at 0.994 with Dovitinib + Lapatinib (first compound 0.06325 µM), 0.944 with Dovitinib + Lapatinib (first compound 0.2 µM), 0.982 with Dovitinib + Lapatinib (first compound 0.6325 µM) and 1.18 with Dovitinib + Lapatinib (first compound 2 µM).
For the cell line EBC-1, the relative viability with Dovitinib + Lapatinib (first compound 0.02 µM) was found to be 0.25; in the test with Dovitinib + Lapatinib (first compound 0.06325 µM), 0.228; in the test with Dovitinib + Lapatinib (first compound 0.2 µM), 0.222; with Dovitinib + Lapatinib (first compound 0.6325 µM) it was 0.194; with Dovitinib + Lapatinib (first compound 2 µM), 0.216; with Dovitinib + Olaparib (first compound 0.02 µM), 0.723. In addition, the relative viability with Dovitinib + Olaparib (first compound 0.06325 µM) came to 0.69; in the test with Dovitinib + Olaparib (first compound 0.2 µM), 0.664; with Dovitinib + Olaparib (first compound 0.6325 µM), 0.712; with Dovitinib + Olaparib (first compound 2 µM), 0.677.
Calu-6: the relative viability is 0.99 with Dovitinib + Lapatinib (first compound 0.02 µM); 1.04 with Dovitinib + Lapatinib (first compound 0.06325 µM); 1.11 with Dovitinib + Lapatinib (first compound 0.2 µM); 1.08 in the test with Dovitinib + Lapatinib (first compound 0.6325 µM); 1.09 with Dovitinib + Lapatinib (first compound 2 µM); 0.572 with Dovitinib + Olaparib (first compound 0.02 µM). Besides, the relative viability in the test with Dovitinib + Olaparib (first compound 0.06325 µM) worked out at 0.578; with Dovitinib + Olaparib (first compound 0.2 µM), 0.553; in the test with Dovitinib + Olaparib (first compound 0.6325 µM) it was 0.571; with Dovitinib + Olaparib (first compound 2 µM), 0.809.
